# Source: patent US20070225355A1, “Dietary Compositions for Enhancing Metabolism and Reducing Reactive Oxygen Species” (Elixirin Corporation, priority 2004, published 2007)
# Assays:
# oxidation level of DNA = assay: Oxidation level of DNA in hippocampus sections (anti-8-hydroxy-2'-deoxyguanosine/8-hydroxyguanosine immunocytochemistry); type: in vivo; conditions: rat brain hippocampus sections, fed 7 weeks; mean of 5 animals; standard deviation about 15%
# Text: The rats in the experimental group (5 each) were fed either 0.5% (wt/vol) acetyl-L-camitine in water, 1.0% (wt/vol) polyphenol in water; 0.2% (wt/wt) lipoic acid in AIN93M diet, or a combination of the above. Rats were acclimated for one week before experiments. Rats were fed for the above treatment for 7 weeks before tests. Control rats were fed with water and AIN93M diet only. For assaying DNA oxidation, rats from each treatment group (5 animals per group) was anesthetized with ether and perfused with paraformaldehyde. The brain was removed and postfixed for paraffin sections. Sections of hippocampus were incubated with anti-8-hydroxy-2′-deoxyguanosine/8-hydroxyguanosine and visualized by using standard immunocytochemical methods. Quantification of oxidation was done as described in Liu, J K, et al., (Proc. Natl. Acad. Sci USA, 99:1356-2361, 2002). Values are a mean of 5 animals. The standard deviation is about 15%.
# Fischer 344 male rats = assay: Morris water maze spatial memory test in rats; type: in vivo, rat; conditions: fed 7 weeks, 4 consecutive days, 4 trials per day, averaged, standard deviation around 20%
# Text: FIG. 1 of 2 depicts measurements of spatial memory in (Fischer 344 male rats) subjected to a water maze test, after treatment with carnitine, lipoic acid, and/or polyphenol. […] The Morris maze task tests spatial memory by requiring rats to fmd a submerged platform in a pool of water using external visual cues (Morris, R. 1984; J. Neurosci. Methods, 11:47-60; Schenk, F. and Morris, R, Exp. Brain Res. 58:11-28, 1985). The rats in the experimental group (5 each) were fed either 0.5% (wt/vol) acetyl-L-carnitine in water, 1.0% (wt/vol) polyphenol in water; 0.2% (wt/wt) lipoic acid in AIN93M diet, or a combination of the above. Rats were acclimated for one week before experiments. Rats were fed for the above treatment for 7 weeks before tests. Trials (4 consecutive days, 4 trials per day) were conducted and the results averaged. The standard deviation is around 20%. Control rats were fed with water and AIN93M diet only.
compound,measurement,setting,value
O=C(O)CCCC[C@@H]1CCSS1 (racemic) [lipoic acid],DNA oxidation level compared with rats having no treatment,oxidation level of DNA,~82%
same,"mastery of the water maze, faster over no treatment",Fischer 344 male rats,~79%
